Experimental findings from the Deep4Chem optical property database are described below.

The series in a line: solvent given as SMILES.

Several values for one entry are separate records, joined by “and”; a condition that tells them apart may be missing. Identical values can stand only once.

In the case of `N#Cc1c(N2c3ccccc3C(c3ccccc3)(c3ccccc3)c3ccccc32)cccc1N1c2ccccc2C(c2ccccc2)(c2ccccc2)c2ccccc21`, the emission maximum runs as follows: (in Cc1ccccc1) 454 nm; (in O=P(c1ccccc1)(c1ccccc1)c1ccccc1Oc1ccccc1P(=O)(c1ccccc1)c1ccccc1) 466 nm.

For the molecule `O=P1(c2ccccc2)C(c2ccccc2)=Cc2ccccc21` (centres undefined), the emission maximum was 417 nm (in C1CCOC1) and 423 nm (in ClCCl).

As to `C(=C\c1cc(/C=C/c2ccc(-n3c4ccccc4c4ccccc43)cc2)cc(/C=C/c2ccc(-n3c4ccccc4c4ccccc43)cc2)c1)/c1ccc(-n2c3ccccc3c3ccccc32)cc1`, the emission maximum is, setting by setting: (in C1CCOC1) 403 nm; (in CC#N) 429 nm; (in Cc1ccccc1) 401 nm; (in ClCCl) 419 nm.

With `Oc1ccc2ccccc2c1-c1nc(-c2ccccc2)c2ccccn12`, the emission maximum is, setting by setting: (in C1CCCCC1) 407 nm; (in CC#N) 435 nm; (in CO) 433 nm; (in ClCCl) 467 nm; (in O) 440 nm.

Molecule `C(=C\c1cc(-c2ccccc2)c(/C=C/c2ccc(N(c3ccccc3)c3ccccc3)cc2)cc1-c1ccccc1)/c1ccc(N(c2ccccc2)c2ccccc2)cc1` yielded an emission maximum (in ClCCl) of 495 nm.

Under “in ClCCl”, `Cc1cccc2nc(-c3cc(=O)c(OCc4ccccc4)co3)c(NC3CCCCC3)n12` came in with an emission maximum of 476 nm.

Take `CC(C)(C)c1ccc(-c2nnc(-c3c(-n4c5ccccc5c5ccccc54)c(-n4c5ccccc5c5ccccc54)c(-c4nnc(-c5ccc(C(C)(C)C)cc5)o4)c(-n4c5ccccc5c5ccccc54)c3-n3c4ccccc4c4ccccc43)o2)cc1`: the emission maximum amounted to 569 nm (in Cc1ccccc1) and 527 nm (in c1cc(-n2c3ccccc3c3ccccc32)nc(-n2c3ccccc3c3ccccc32)c1).

Under “in ClCCl”, `O=C1c2cccc3cc(C#CC#Cc4cc5c6c(cccc6c4)C(=O)N(c4ccccc4)C5=O)cc(c23)C(=O)N1c1ccccc1` showed an emission maximum of 421 nm.

`F[Si-](F)(c1ccccc1)(c1c2ccccc2cc2ccccc12)c1c2ccccc2cc2ccccc12`: for the setting “in C1CCOC1”, the emission maximum is listed as 395 nm.

Regarding `Nc1ccc2c(c1)Cc1ccccc1-2`, the emission maximum reads like this: (in C1CCCCC1) 347 nm; (in C1COCCO1) 363 nm; (in CC#N) 363 nm; (in CC(C)O) 369 nm; (in CCCCCC) 344 nm; (in CCCCCCC) 344 nm. In addition, the emission maximum is, setting by setting: (in CCO) 368 nm; (in CCOC(C)=O) 360 nm; (in CCOCC) 349 nm; (in CO) 367 nm; (in ClCCl) 353 nm; (in O) 377 nm.

`N#Cc1nc(-n2c3ccccc3c3ccccc32)cc(-n2c3ccccc3c3ccccc32)n1` returned an emission maximum (in Cc1ccccc1) of 518 nm.

`COC(=O)c1[nH]c(-c2ccccc2)c2nnc3ccsc3c12`: under “in ClCCl”, the emission maximum is on record as 478 nm.

The molecule `CCN(CC)c1ccc2c(-c3ccccc3C(=O)O)c3c([o+]c2c1)/C(=C/c1nc(-c2ccccc2)n2ccccc12)CCC3` had an emission maximum (in ClCCl) of 746 nm.

Under “in C1CCOC1”, `c1cc2c3c4c5c(cccc5cc3c1)-c1cccn1B4n1cccc1-2` had an emission maximum of 601 nm.

On to `[BH3-][P+]1(c2ccccc2)c2ccccc2-c2sc3ccccc3c21` (centres undefined), for which the emission maximum is, setting by setting: (in C1CCCCC1) 395 nm; (in CC#N) 401 nm; (in CCO) 400 nm; (in ClCCl) 400 nm.

`CCCCCCCCCCCCn1c(-c2cc(-c3nc4ccc(C)cc4n3CCCCCCCCCCCC)cc(-c3nc4ccc(C)cc4n3CCCCCCCCCCCC)c2)nc2ccc(C)cc21` displayed an emission maximum (in C1CCOC1) of 375.8 nm.

`CCCCCCN(c1ccccc1)c1ccc2c(c1)C(CC)(CC)c1cc(/C=C/c3ccc(/C=C(\C#N)C(=O)O)s3)ccc1-2`: the emission maximum is, setting by setting: (in C1CCOC1) 651 nm; (in C1COCCO1) 620 nm; (in CC#N) 554 nm; (in CC(C)=O) 574 nm; (in CCOC(C)=O) 654 nm; (in CN(C)C=O) 605 nm. Besides, the emission maximum by setting is: (in CS(C)=O) 627 nm; (in ClCCl) 594 nm.

For the setting “in Cc1ccccc1”, `Cc1ccc(-n2c(-c3ccccc3[N-]S(=O)(=O)c3ccc(C)cc3)[nH+]c3c4ccccc4c4ccccc4c32)cc1` returned an emission maximum of 506 nm.

Consider `CCCCCCCCCCCCN1C(=O)c2cccc3c(N(Cc4ccccn4)Cc4ccccn4)c4ccccc4c(c23)C1=O`, for which the emission maximum runs as follows: (in C1CCOC1) 583 nm; (in CCCCCC) 555 nm; (in CCO) 597 nm; (in Cc1ccccc1) 573 nm; (in ClCCl) 587 nm.

In turn, `COc1ccc(-c2oc3cccc4c5c(-c6ccc(OC)c(OC)c6)/c(=N/S(=O)(=O)C(F)(F)F)oc6cccc(c2c34)c65)cc1OC` had an emission maximum (in ClC(Cl)Cl) of 613 nm.

`c1cc2cccc3c4cccc5cccc(c(c1)c23)c54` displayed an emission maximum (in C1CCCCC1) of 438.4 nm, an emission maximum (in ClC(Cl)Cl) of 443 nm and an emission maximum (in ClCCl) of 448 nm.

`CCCCOc1c(Br)cc2cc(Br)c(OCCCC)c3c4c(OCCCC)c(Br)cc5cc(Br)c(OCCCC)c(c1c23)c54` came in with an emission maximum (in ClCCl) of 489 nm.

For the setting “in C1CCOC1”, `CCCCCCCCCCCCn1c(-c2cc(-c3nc4ccccc4n3CCCCCCCCCCCC)cc(-c3nc4ccccc4n3CCCCCCCCCCCC)c2)nc2ccccc21` gave an emission maximum of 367.4 nm.

`COc1ccc(/C=C2\OC(=O)c3ccccc32)cc1`: the emission maximum by setting is: (in CC#N) 456.2 nm and 446 nm; (in CC(C)=O) 452.49 nm; (in CC(C)CO) 451.88 nm; (in CC(C)O) 459.77 nm; (in CCCO) 460.83 nm; (in CCO) 459.35 nm. Further, the emission maximum is, setting by setting: (in CCOC(C)=O) 438.6 nm; (in CCOCC) 434.03 nm; (in CO) 459.35 nm.

As for `Fc1cc(-c2ccc(-c3nc4ccccc4[nH]3)cc2)ccc1-c1ccc(-c2nc3ccccc3[nH]2)cc1`, under “in CN(C)C=O”, the emission maximum is recorded as 414 nm.

For the setting “in CC#N”, `COC(=O)/C=C/c1sc(-c2ccc(N(C)C)s2)c(-c2cn(C)c3ccccc23)c1O` returned an emission maximum of 663 nm.

`CCNc1ccc(NCC)c2c1C(=O)c1ccccc1C2=O`: the emission maximum is, setting by setting: (in C1CCCCC1) 670 nm; (in C1COCCO1) 684 nm; (in CC(C)=O) 671 nm; (in CCCCCCCCCCO) 672 nm; (in CCCCCCCO) 666 nm; (in CCCCCCO) 663 nm. The emission maximum amounted to 670 nm (in CCCCO); 672 nm (in CCO); 680 nm (in CN(C)C=O); 669 nm (in CO); 672 nm (in CS(C)=O); 679 nm (in ClC(Cl)(Cl)Cl). Besides, the emission maximum (in c1ccccc1) stood at 670 nm.
